Converted amounts (≈) assume the structure as drawn. Like-named read-outs stand apart in the source and are kept apart here. Square brackets hold non-standard residues; d marks the D form. Ends that are not written are not given here. Peptide text beside a SMILES is read from it. * marks the point of attachment. Fmoc = O=C(OCC1c2ccccc2-c2ccccc21)*

The values below come from patent US5440016A, “Peptides of the formula (KFmoc) ZZZ and their uses” (priority 1993, dated 1995).

Data set [1] concerns Staphylococcus aureus ATCC 29213.
In data set [2] the test system is Streptococcus sanguis ATCC 10556.
Method: Streptococcus sanguis ATCC 10556 (Gram-positive (+) bacteria present in tooth crevices) was grown overnight at 37° C. in Brain Heart Infusion (BHI) broth. This culture was reinoculated and incubated at 37° C. to reach the exponential phase of bacteria growth, i.e., a final bacterial suspension containing 10^5 to 5×10^5 colony-forming units (CFU)/ml. The concentration of cells was established by plating 100 μl of different dilutions of the culture solution (e.g., 10^-2, 10^-4) and 10^-4) onto solid agar plates. Following an overnight incubation at 37° C., the CFU thus formed were counted on each agar plate. In 96-well tissue culture plates, as control blanks, eight wells per plate contained only medium, while as a positive growth control, eight other wells contained medium plus cells. […] The plates were incubated overnight at 37° C., and the optical density (OD) determined at 620 nm after 20 to 24 hours incubation.
Data set [3] has as its system Candida albicans ATCC 10231. To be noted: Tables 14-17.
For data set [4], the system named is Human red blood cells (RBCs). Briefly: Hemolytic activity. The class given is cell-based. To be noted: Tables 18-21.
In the next data set the target is melittin (Apis mellifera, UniProt P01501). Briefly: cell-based. The conditions noted are these: read-out: IC50, inhibition of melittin (converted).
Chain of melittin (P01501 44-69 limits assumed): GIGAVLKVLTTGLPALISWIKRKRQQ
Setting [5] is: Tables 7-9, lower parts (unnatural amino acids).
The mark [6] stands for this setting: Tables 11-13, lower parts (unnatural amino acids).

With `NCCCC[C@H](NC(=O)OCC1c2ccccc2-c2ccccc21)C(=O)N[C@@H](Cc1c[nH]c2ccccc12)C(=O)N[C@@H](Cc1ccc(O)cc1)C(=O)N[C@H](CS)C(N)=O` [(KFmoc)WYc-NH2] (Fmoc-KWY[dC]-NH2), the “IC50 against S. aureus” value in data set [1] (Tables 6-9) came to 21 µg/mL (≈ 25.6 µM). Besides, the “IC50 against S. sanguis” value in data set [2] (Tables 10-13) was found to be 42 µg/mL (≈ 51.2 µM).
For the compound `NCCCC[C@H](NC(=O)OCC1c2ccccc2-c2ccccc21)C(=O)N[C@@H](Cc1c[nH]c2ccccc12)C(=O)N[C@@H](CCCCN)C(=O)N[C@H](CCCCN)C(N)=O` [(KFmoc)WKk-NH2] (Fmoc-KWK[dK]-NH2), the “IC50 against S. aureus” value in data set [1] (Tables 6-9) came out at 8 µg/mL (≈ 9.88 µM). Further, in data set [3], the “IC50 against C. albicans” value was 126 µg/mL (≈ 156 µM). For the same compound, the “IC50 against S. sanguis” value in data set [2] (Tables 10-13) worked out at 7 µg/mL (≈ 8.64 µM).
Regarding (KFmoc)ciG-NH2, the “HD50 (concentration necessary to lyse 50% of the cells)” value in data set [4] worked out at 35 µg/mL. Also, in data set [3], the “IC50 against C. albicans” value turned out to be 372 µg/mL. The “IC50 against S. sanguis” value in data set [2] (Tables 10-13) stood at 23 µg/mL.
Regarding `CC[C@@H](C)[C@@H](NC(=O)[C@@H](CS)NC(=O)[C@H](CCCCN)NC(=O)OCC1c2ccccc2-c2ccccc21)C(=O)N[C@H](C)C(N)=O` [(KFmoc)cia-NH2] (Fmoc-K[dC][dI][dA]-NH2), the “HD50 (concentration necessary to lyse 50% of the cells)” value in data set [4] was determined as 77 µg/mL. Moreover, the “IC50 against S. sanguis” value in data set [2] (Tables 10-13) turned out to be 59 µg/mL (≈ 90.1 µM).
Consider (KFmoc)Wf(Cys[ACM])-NH2, for which the “IC50 against S. aureus” value in data set [1] (setting [5]) was 18 μg/m. Further, the “IC50 against S. sanguis” value in data set [2] (setting [6]) was found to be 30 μg/m.
What is called IC50 is the point on the concentration scale where inhibition reaches its midpoint. Consider Ac-IVILLI-NH2 [Ac-IVILLI-NH2], for which the IC50 at melittin is 35.9 µM.
Same read-out and setting: in the case of Ac-IVIFFL-NH2 [Ac-IVIFFL-NH2] it was 140 µM; in that of Ac-IVILLY-NH2 [Ac-IVILLY-NH2], 12.9 µM.
Take Ac-IVILLG-NH2 [Ac-IVILLG-NH2]: the IC50 at melittin is 25.5 µM.
On the same count and under the same terms, in the case of Ac-IVIFFN-NH2 [Ac-IVIFFN-NH2] it was 22.7 µM.
The same measure, in the same setting: in the case of Ac-IVILLL-NH2 [Ac-IVILLL-NH2] it was 123 µM; in that of Ac-IDIYCE-NH2 [Ac-IDIYCE-NH2], 361 µM.
On the same count and under the same terms, under Ac-WIQIFI-NH2 [Ac-WIQIFI-NH2] stands 25.6 µM.
Regarding Ac-IQIWCE-NH2 [Ac-IQIWCE-NH2], on melittin, the IC50 was 6.73 µM.
Still for that read-out and setting: under Ac-IVILTV-NH2 [Ac-IVILTV-NH2] stands 30.1 µM; under Ac-IVILTL-NH2 [Ac-IVILTL-NH2], 14 µM.
Consider Ac-IIIYFE-NH2 [Ac-IIIYFE-NH2], for which the IC50 on melittin is 5.85 µM.
Still for that read-out and setting: in the case of Ac-FDIWFK-NH2 [Ac-FDIWFK-NH2] it was 128 µM; in that of Ac-IVILTT-NH2 [Ac-IVILTT-NH2], 62.9 µM; in that of Ac-IVILTG-NH2 [Ac-IVILTG-NH2], 33.5 µM.
On to Ac-FIIYCE-NH2 [Ac-FIIYCE-NH2], for which the IC50 at melittin is 5.68 µM.
On to Ac-IVIFFM-NH2 [Ac-IVIFFM-NH2], for which the IC50 on melittin is 25.9 µM.
Turning to Ac-FIIWFE-NH2 [Ac-FIIWFE-NH2], on melittin, the IC50 was 6.03 µM.
In the case of Ac-FQIWCE-NH2 [Ac-FQIWCE-NH2], the IC50 at melittin was 10.9 µM.
Same read-out and setting: in the case of Ac-IVILTK-NH2 [Ac-IVILTK-NH2] it was greater than 344 µM.
On the same count and under the same terms, in the case of Ac-IQIYCK-NH2 [Ac-IQIYCK-NH2] it was 1310 µM; in that of Ac-IDIYFE-NH2 [Ac-IDIYFE-NH2], 355 µM; in that of Ac-IVIFFV-NH2 [Ac-IVIFFV-NH2], 38.6 µM.
Same read-out and setting: in the case of NDEIVI-NH2 [NDEIVI-NH2] it was 444 µM.
In the case of Ac-IQIYFE-NH2 [Ac-IQIYFE-NH2], the IC50 on melittin is 19.9 µM.
On the same count and under the same terms, under Ac-IVILTS-NH2 [Ac-IVILTS-NH2] stands 52.5 µM.
For `NCCCC[C@H](NC(=O)OCC1c2ccccc2-c2ccccc21)C(=O)N[C@@H](Cc1c[nH]c2ccccc12)C(=O)N[C@@H](Cc1ccc(O)cc1)C(=O)N[C@H](CC(N)=O)C(N)=O` [(KFmoc)WYn-NH2] (Fmoc-KWY[dN]-NH2), in data set [1] (Tables 6-9), the “IC50 against S. aureus” value stood at 6 µg/mL (≈ 7.22 µM). Further, the “HD50 (concentration necessary to lyse 50% of the cells)” value in data set [4] came out at 257 µg/mL. Besides, in data set [2] (Tables 10-13), the “IC50 against S. sanguis” value was 8 µg/mL (≈ 9.63 µM).
On to Ac-IVILLE-NH2 [Ac-IVILLE-NH2], for which the IC50 on melittin is 10.8 µM.
The same measure, in the same setting: in the case of Ac-IVILLD-NH2 [Ac-IVILLD-NH2] it was 24.8 µM.
Still for that read-out and setting: under Ac-IVILLN-NH2 [Ac-IVILLN-NH2] stands 17.9 µM.
For Ac-IVILTF-NH2 [Ac-IVILTF-NH2], the IC50 at melittin is 13.4 µM.
Still for that read-out and setting: in the case of Ac-IVILLS-NH2 [Ac-IVILLS-NH2] it was 21.5 µM.
For the compound Ac-IVILTI-NH2 [Ac-IVILTI-NH2], the IC50 on melittin was greater than 351 µM.
For (KFmoc)WY(Hyp)-NH2, the “IC50 against S. aureus” value in data set [1] (setting [5]) is 9 μg/m. Further, the “HD50 (concentration necessary to lyse 50% of the cells)” value in data set [4] is 81 µg/mL. In addition, the “IC50 against S. sanguis” value in data set [2] (setting [6]) came out at 10 μg/m.
Regarding Ac-IVILLK-NH2 [Ac-IVILLK-NH2], on melittin, the IC50 is greater than 338 µM.
Ac-IVILLF-NH2 [Ac-IVILLF-NH2]: the IC50 on melittin was 27.7 µM.
Same read-out and setting: in the case of Ac-IVILLR-NH2 [Ac-IVILLR-NH2] it was greater than 326 µM.
In the case of `CC[C@@H](C)[C@@H](NC(=O)[C@@H](Cc1ccccc1)NC(=O)[C@H](Cc1c[nH]c2ccccc12)NC(=O)[C@H](CCCCN)NC(=O)OCC1c2ccccc2-c2ccccc21)C(N)=O` [(KFmoc)Wfi-NH2] (Fmoc-KW[dF][dI]-NH2), the “IC50 against S. aureus” value in data set [1] (Tables 6-9) came out at 4 µg/mL (≈ 4.91 µM). Further, in data set [2] (Tables 10-13), the “IC50 against S. sanguis” value turned out to be 4 µg/mL (≈ 4.91 µM).
For the compound Ac-IVILTC-NH2 [Ac-IVILTC-NH2], the IC50 at melittin is 27.1 µM.
With `CC[C@@H](C)[C@@H](NC(=O)[C@@H](CS)NC(=O)[C@H](CCCCN)NC(=O)OCC1c2ccccc2-c2ccccc21)C(=O)N[C@H](Cc1ccccc1)C(N)=O` [(KFmoc)cif-NH2] (Fmoc-K[dC][dI][dF]-NH2), in data set [1] (Tables 6-9), the “IC50 against S. aureus” value is 21 µg/mL (≈ 28.7 µM). Further, in data set [3], the “IC50 against C. albicans” value stood at 218 µg/mL (≈ 298 µM).
For the compound Ac-IVIFFE-NH2 [Ac-IVIFFE-NH2], the IC50 on melittin was 17.3 µM.
Same read-out and setting: in the case of Ac-IVILLC-NH2 [Ac-IVILLC-NH2] it was greater than 350 µM; in that of Ac-IVILLA-NH2 [Ac-IVILLA-NH2], 22 µM; in that of Ac-IVILLH-NH2 [Ac-IVILLH-NH2], greater than 334 µM.
On the same count and under the same terms, in the case of Ac-VIQQFV-NH2 [Ac-VIQQFV-NH2] it was 20.7 µM.
For Ac-IVIFFK-NH2 [Ac-IVIFFK-NH2], the 50% inhibitory concentration (IC50) on melittin is greater than 310 µM.
As to NEEIVI-NH2 [NEEIVI-NH2], the IC50 on melittin was 509 µM.
Ac-IVILLV-NH2 [Ac-IVILLV-NH2]: the IC50 on melittin is 98.6 µM.
Take `NCCCC[C@H](NC(=O)OCC1c2ccccc2-c2ccccc21)C(=O)N[C@@H](Cc1c[nH]c2ccccc12)C(=O)N[C@H](Cc1ccccc1)C(=O)N[C@H](Cc1ccc(O)cc1)C(N)=O` [(KFmoc)Wfy-NH2] (Fmoc-KW[dF][dY]-NH2): the “IC50 against S. aureus” value in data set [1] (Tables 6-9) amounted to 15 µg/mL (≈ 17.4 µM). Further, the “IC50 against S. sanguis” value in data set [2] (Tables 10-13) is 17 µg/mL (≈ 19.7 µM).
Consider Ac-FDIWFE-NH2 [Ac-FDIWFE-NH2], for which the IC50 at melittin is 185 µM.
For (KFmoc)Wf(7aHa)-NH2, the “IC50 against S. aureus” value in data set [1] (setting [5]) came out at 7 μg/m. In data set [2] (setting [6]), the “IC50 against S. sanguis” value is reported as 10 μg/m.
With Ac-IIIWCE-NH2 [Ac-IIIWCE-NH2], the IC50 on melittin is 5.51 µM.
As to Ac-IVIFFD-NH2 [Ac-IVIFFD-NH2], the IC50 at melittin is 12.6 µM.
With Ac-IVILLW-NH2 [Ac-IVILLW-NH2], the IC50 at melittin is 6.27 µM.
Ac-IQIYCE-NH2 [Ac-IQIYCE-NH2]: at melittin, the IC50 is 5.93 µM.
The same measure, in the same setting: in the case of Ac-FDIYCE-NH2 [Ac-FDIYCE-NH2] it was 229 µM.
Take Ac-IVILLT-NH2 [Ac-IVILLT-NH2]: on melittin, the IC50 is 25.3 µM.
For the compound Ac-FQIWFE-NH2 [Ac-FQIWFE-NH2], the IC50 at melittin was 9.01 µM.
